These results are taken from patent US9566342B2, “Compounds for treatment of heart failure” (SOLVOTRIN INNOVATIONS LIMITED, priority 2010, dated 2017).

For one series, the system named is MMP-2 mRNA. Description: TNFα treated human cardiac fibroblasts, MMP-2 transcription (QPCR). It counts as cell-based. Particulars: HCF, 10 ng/mL TNFα 72 hours, 75 or 150 μM.
Series [1] deals with T1, MMP-2 (Homo sapiens, UniProt P08253).
T1 sequence (P08253 110-660): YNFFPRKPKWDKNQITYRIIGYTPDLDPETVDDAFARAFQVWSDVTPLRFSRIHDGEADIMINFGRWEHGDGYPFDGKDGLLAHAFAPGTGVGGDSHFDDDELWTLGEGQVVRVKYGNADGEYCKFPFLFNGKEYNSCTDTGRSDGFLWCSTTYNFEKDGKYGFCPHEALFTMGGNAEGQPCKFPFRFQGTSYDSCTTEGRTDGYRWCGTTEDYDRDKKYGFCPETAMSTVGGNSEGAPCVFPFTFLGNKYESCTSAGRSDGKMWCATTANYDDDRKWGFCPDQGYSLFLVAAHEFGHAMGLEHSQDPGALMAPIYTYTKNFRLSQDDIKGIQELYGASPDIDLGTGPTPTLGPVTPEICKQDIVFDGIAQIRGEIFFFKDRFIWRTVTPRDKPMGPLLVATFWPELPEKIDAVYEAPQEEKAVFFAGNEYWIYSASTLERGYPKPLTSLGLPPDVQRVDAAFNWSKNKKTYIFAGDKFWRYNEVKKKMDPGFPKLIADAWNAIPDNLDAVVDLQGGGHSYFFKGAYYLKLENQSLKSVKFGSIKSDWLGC
Description: Model of direct enzyme inhibition, MMP-2 (IC50). It counts as biochemical.

Series [2] has as its system Human Ventricular Cardiac Fibroblast (HCF). Description: Human ventricular cardiac fibroblast proliferation (CellTitre-Glo). It counts as cell-based.
The test system of another series is MMP-9 mRNA. Description: TNFα treated human cardiac fibroblasts, MMP-9 transcription (QPCR). It counts as cell-based. Particulars: HCF.
Series [3] has as its system Human Peripheral Blood mononuclear cells (PBMC) stimulated with TNF-α. Description: MMPs, TIMP-1 and inflammatory markers in supernatants of PBMC stimulated with TNF-α. The series is classed as cell-based.
For series [4], the system named is MMP-9. Description: PMA-stimulated CaCo2 cells, zymography of media, MMP-9. It counts as cell-based.
For series [5], the system named is MMP-9. Description: Total MMP-9 levels on repeated oral administration in non-human primates. It counts as in vivo, cynomolgus monkeys.
The next series deals with human colon cancer cells. Description: Colon cancer cell invasiveness, in vitro model. The series is classed as cell-based. Particulars: low dose, FIG. 10.
Series [6] has as its system MMP-2. Description: PMA stimulated breast cancer cell model (HT1080 cells), pro-MMP-2 / MMP-2. The series is classed as cell-based.
The target in series [7] is T2, MMP-9 (Homo sapiens, UniProt P14780). Description: Direct inhibition of recombinant MMP-9, fluorogenic substrate. It counts as biochemical. More on the design: purchased R&D Systems, Ireland. The settings on record: read-out: inhibition of recombinant human MMP-9.
T2 sequence (P14780 94-707): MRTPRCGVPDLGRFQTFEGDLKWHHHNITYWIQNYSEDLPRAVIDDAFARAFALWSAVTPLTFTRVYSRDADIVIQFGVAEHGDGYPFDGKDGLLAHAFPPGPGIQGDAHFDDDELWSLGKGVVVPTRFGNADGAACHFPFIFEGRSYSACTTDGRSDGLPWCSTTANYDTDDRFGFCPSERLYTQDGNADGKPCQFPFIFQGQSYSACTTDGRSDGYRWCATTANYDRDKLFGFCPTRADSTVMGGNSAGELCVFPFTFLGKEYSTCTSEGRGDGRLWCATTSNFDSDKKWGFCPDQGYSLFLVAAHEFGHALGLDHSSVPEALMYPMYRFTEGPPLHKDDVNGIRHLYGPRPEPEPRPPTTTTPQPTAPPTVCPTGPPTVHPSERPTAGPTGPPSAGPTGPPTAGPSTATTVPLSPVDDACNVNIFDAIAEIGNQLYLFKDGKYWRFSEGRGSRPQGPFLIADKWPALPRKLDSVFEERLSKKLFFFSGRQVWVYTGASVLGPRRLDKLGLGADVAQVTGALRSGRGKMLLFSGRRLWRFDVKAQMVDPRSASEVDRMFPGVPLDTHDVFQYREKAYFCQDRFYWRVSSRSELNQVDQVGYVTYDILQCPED
A further series deals with MMP-8 (Homo sapiens, UniProt P22894). Description: Direct enzyme inhibition, MMP-8. The series is classed as biochemical.
Chain of MMP-8 (P22894 101-467, species assumed): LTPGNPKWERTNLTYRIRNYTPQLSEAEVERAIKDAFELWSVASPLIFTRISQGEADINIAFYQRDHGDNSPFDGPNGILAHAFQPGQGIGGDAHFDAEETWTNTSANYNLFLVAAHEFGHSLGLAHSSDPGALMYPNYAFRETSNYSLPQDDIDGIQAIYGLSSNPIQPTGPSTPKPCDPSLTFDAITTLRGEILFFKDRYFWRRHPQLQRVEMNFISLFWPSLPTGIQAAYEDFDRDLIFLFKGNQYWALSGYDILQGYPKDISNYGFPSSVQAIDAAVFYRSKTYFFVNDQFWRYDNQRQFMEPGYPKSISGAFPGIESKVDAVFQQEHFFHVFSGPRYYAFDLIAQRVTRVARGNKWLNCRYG
Series [8] is described as follows: Blood pressure in non-human primates. The settings on record: cynomolgus monkeys, over dosing period.
Series [9] deals with T1, MMP-2. Description: Direct inhibition of recombinant MMP-2, fluorogenic substrate. More on the design: purchased R&D Systems, Ireland. The series is classed as biochemical. Particulars: read-out: inhibition of recombinant human MMP-2.
In another series the target is MMP-13 (Homo sapiens, UniProt P45452). Description: Direct enzyme inhibition, MMP-13. It counts as biochemical.
Series [10] has as its target T2, MMP-9. Description: Model of direct enzyme inhibition, MMP-9 (IC50). The series is classed as biochemical.
Series [11] relates to MMP-2. Description: PMA-stimulated CaCo2 cells, zymography of media, MMP-2. It counts as cell-based. Particulars: 150 uM.
Another series deals with T3, MMP-1 (Homo sapiens, UniProt P03956).
T3 sequence (P03956 100-469): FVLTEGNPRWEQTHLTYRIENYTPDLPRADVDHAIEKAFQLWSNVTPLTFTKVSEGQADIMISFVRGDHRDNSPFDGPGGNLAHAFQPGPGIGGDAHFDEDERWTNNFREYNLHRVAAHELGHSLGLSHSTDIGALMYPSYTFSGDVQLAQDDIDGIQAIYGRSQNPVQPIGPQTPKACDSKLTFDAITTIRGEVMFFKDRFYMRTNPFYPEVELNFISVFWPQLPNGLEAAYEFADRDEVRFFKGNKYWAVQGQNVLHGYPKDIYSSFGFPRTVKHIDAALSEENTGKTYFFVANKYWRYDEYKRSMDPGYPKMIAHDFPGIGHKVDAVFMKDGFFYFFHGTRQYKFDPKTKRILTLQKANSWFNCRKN
Description: Direct enzyme inhibition, MMP-1. The series is classed as biochemical.

Where [12] appears, read: 75 μM, 24 hours, TNFα, mean ± SEM.
Setting [13] is: 150 μM, 24 hours, TNFα, mean ± SEM.

As to `C[C@H]1c2cccc(O)c2C(=O)C2=C(O)[C@]3(O)C(=O)C(C(=O)NCN4CCC(CO[N+](=O)[O-])CC4)=C(O)[C@@H](N(C)C)[C@@H]3[C@@H](O)[C@@H]21` [Example 7, amido-N-[4-(nitrooxymethyl)piperidinomethyl]-α-6-deoxy-5-oxytetracycline], the melting point (as a rule, the temperature, or range, at which the solid turns liquid) was 130 to 132 °C.
Consider `C[C@H]1c2cccc(O)c2C(=O)C2=C(O)[C@]3(O)C(=O)C(C(=O)NCN(CCO[N+](=O)[O-])CCO[N+](=O)[O-])=C(O)[C@@H](N(C)C)[C@@H]3[C@@H](O)[C@@H]21` [SI1004, amido-N—[N,N-diethylnitrate-aminomethyl]-α-6-deoxy-5-oxytetracycline], for which the melting point lay within 101 to 104 °C. The “MMP-2 mRNA expression” value in the series on MMP-2 mRNA is listed as “no significant effects”. For the same compound, at MMP-2 [1], the IC50 (in general, the concentration that gives 50% inhibition) stood at 9.4 µM. The “inhibition of HCF proliferation” value in series [2] (75-150 μM, 2% FCS following serum starvation for 72 hours) is “significant inhibition”. In series [2] (150 micromolar), the “inhibition of cardiac fibroblast proliferation (admixture study, FIG. 13)” value is listed as “significantly more effective at inhibiting cardiac fibroblast proliferation”. Moreover, the “MMP-9 protein levels in treated cell supernatants” value with MMP-9 mRNA is reported as “below the lower limit of quantification”. For the same compound, the “TNFα induced upregulation of MMP-9 mRNA” value in the series with MMP-9 mRNA (10 ng/mL TNFα 72 hours, 75 or 150 μM) was “significantly inhibited”. Moreover, in series [3], the “MMP-3 in in vitro inflammatory cell models” value is on record as “does not reduce MMP-3”. Further, in series [3] (setting [12]), the “Interleukin-1β protein level in PBMC supernatant” value was found to be 27.8 ± 6.6 ng/mL, the “Interleukin-4 protein level in PBMC supernatant” value is 10.8 ± 0.2 ng/mL, the “Interleukin-5 protein level in PBMC supernatant” value turned out to be 35.8 ± 8.4 ng/mL and the “Interleukin-8 protein level in PBMC supernatant” value is given as 10960 ± 484 ng/mL. In series [3] (setting [12]), the “Interleukin-10 protein level in PBMC supernatant” value is reported as 125.6 ± 32.2 ng/mL, the “Interleukin-13 protein level in PBMC supernatant” value was determined as 80.8 ± 24.8 ng/mL, the “MMP-1 protein level in PBMC supernatant” value was 208 ± 102 ng/mL and the “MMP-2 protein level in PBMC supernatant” value was determined as 120.4 ± 86.4 ng/mL. Further, in series [3] (setting [12]), the “MMP-3 protein level in PBMC supernatant” value turned out to be 8.7 ± 5.2 ng/mL and the “MMP-10 protein level in PBMC supernatant” value was 26.6 ± 18.4 ng/mL. Also, in series [3] (setting [13]), the “Interleukin-5 protein level in PBMC supernatant” value is given as 35.6 ± 6.4 ng/mL, the “Interleukin-10 protein level in PBMC supernatant” value is 142.0 ± 55.2 ng/mL, the “Interleukin-13 protein level in PBMC supernatant” value came to 89.4 ± 13.2 ng/mL and the “MMP-1 protein level in PBMC supernatant” value was determined as 171 ± 66.0 ng/mL. Further, in [3] (setting [13]), the “MMP-2 protein level in PBMC supernatant” value was determined as 95.4 ± 52 ng/mL, the “MMP-3 protein level in PBMC supernatant” value turned out to be 9.1 ± 6.1 ng/mL and the “MMP-10 protein level in PBMC supernatant” value is on record as 29.0 ± 14.6 ng/mL. Also, the “suppression of MMP-9 activity relative to PMA positive control” value in the series on MMP-9 [4] is listed as “approximately 60%”. In the series on MMP-9 [5] (NHPs, daily orogastric gavage for 72 hours, n=6), the “total plasma MMP-9, median AUC” value stood at 4.3 µg·h/mL. Moreover, in the series on MMP-9 [5] (cynomolgus monkeys, oral gavage once daily for three days, n=6 per group), the “change in MMP-9 from baseline to 72 hours” value is “significantly reduced compared to doxycycline”. For the same compound, the “suppression of total serum MMP-9 protein levels” value in the series on MMP-9 [5] (cynomolgus monkeys, oral, daily for 3 days, vs doxycycline) is reported as “more effective suppression”. Moreover, in the series on human colon cancer cells, the “colon cancer cell invasiveness” value is on record as “more effective in reducing tumour cell invasiveness”. Also, in the series with MMP-2 [6], the “conversion of pro-MMP-2 to active MMP-2 (activation of MMP-2)” value is “do not appear to activate MMP-2”. Also, the inhibition (commonly the relative decrease from the control value, in per cent) at 100 µM at MMP-9 [7] came out at 26.6 ± 1.7%. For the same compound, the inhibition at 10 µM at MMP-8 (10 μM) was about 26%. Also, on MMP-8 (100 μM), the inhibition at 100 µM was about 60.7%. Moreover, in series [8], the diastolic blood pressure came to 56.4±3.8 mmHg and the “mean systolic blood pressure” value was determined as 101±6.3 mmHg. The inhibition at 100 µM at MMP-2 [9] was 29.7 ± 2.1%. The compound also gave an inhibition at 10 µM on MMP-13 (10 μM) of about 46%. Besides, the MMP-13 inhibition result at MMP-13 (at 1000 (so in the source)) was “around 74.5%”. The compound further gave an IC50 on MMP-9 [10] of 25 µM. In addition, the “inhibition of MMP-2 activity relative to PMA positive control” value in the series with MMP-2 [11] was “about 40%”. This compound also displayed an inhibition at 10 µM on MMP-1 (10 μM) of about 19%. Besides, the inhibition at 100 µM on MMP-1 (100 μM) was about 63%.
In the case of “Amido-N-[3-(Nitrooxymethyl)Piperidinomethyl]-α-6-Deoxy-5-Oxytetracycline [SI1005]”, the IC50 against MMP-2 [1] turned out to be 63 µM; against MMP-9 [10], 139 µM. The “change in MMP-9 from baseline to 72 hours” value with MMP-9 [5] (cynomolgus monkey, in vivo, po) was “significantly reduced compared to doxycycline and SI1004”. The “colon cancer cell invasiveness” value with human colon cancer cells is recorded as “more effective in reducing tumour cell invasiveness”. Moreover, in the series with MMP-2 [6], the “conversion of pro-MMP-2 to active MMP-2 (activation of MMP-2)” value is “do not appear to activate MMP-2”. The figures for the MMP-8 inhibition on MMP-8 (10 μM) and at MMP-8 (100 μM) were about 16.9% and “around 53.8%”, respectively. Further, the MMP-13 inhibition at MMP-13 (10 μM) is about 6.6%; at MMP-13 (100 μM), “around 28.4%”. Moreover, the results for the MMP-1 inhibition at MMP-1 (10 μM) and at MMP-1 (100 μM) were about 13% and “around 22%”, respectively.
